# Data reported in ChEMBL document CHEMBL1151145, “Minor Bioactive Polyacetylenes from Petrosia ficiformis” (J Nat Prod, 1990).
# Columns and labels:
# [1] = Toxicity against Artemia salina after 24 hrs; type: organism-based; settings: in vivo
# [2] = Inhibition of sea urchin egg development after 48 hrs; settings: echinoidea, sea urchin eggs
# [3] = tested on: Agrobacterium tumefaciens; test: Inhibition of Agrobacterium tumefaciens-induced tumor formation in potato at 0.5 mg/ml by antitumor potato disk assay; type: functional
SMILES,LC50 at 24 h [1],LC50 at 48 h [2],inhibition at 500 µg/mL [3]
C#CC(O)/C=C/CCCCCCCCCCCCCCCCCCCCCCCCCCCCCCCCC/C=C\C#CC(=O)OC (stereo unspecified),0.002 µg/mL,–,–
C#C/C=C\CCCCCCCCCCCCCC/C=C\CC/C=C/C#CC(O)C#CCCCC/C=C\CCCCCC/C=C/C(O)C#C (stereo unspecified),0.0075 µg/mL,50 µg/mL,43%
C#C/C=C\CCCCCCCCCCCCCC/C=C\CC/C=C/C#CC(O)C#CCCCC/C=C\CCCCCC/C=C/C(=O)C#C (stereo unspecified),0.04 µg/mL,–,–
C#CC(O)/C=C/CC/C=C\CCCC/C=C\CCC#CC(O)C#C/C=C/CC/C=C\CCCCCCCCCCCCC/C=C/C(O)C#C (stereo unspecified),0.009 µg/mL,1 µg/mL,15%
C#C[C@@H](O)/C=C/CCCCCC/C=C\CCCCC#C[C@H](O)C#C/C=C/CC/C=C\CCCCCCCCCCCCC/C=C/[C@H](O)C#C [PETROFORMYNE 1],0.014 µg/mL,10 µg/mL,35%
C#CCCCCCCCCCCCCCCCC/C=C\CC/C=C/C#C[C@@H](O)C#CCCCC/C=C\CCCCCC/C=C/[C@H](O)C#C [PETROFORMYNE 3],0.003 µg/mL,10 µg/mL,49%
C#CCCCCCCCCCCCCCCCC/C=C\CC/C=C/C#CC(O)C#CCCCC/C=C\CCCCCC/C=C/C(=O)C#C (stereo unspecified) [PETROFORMYNE 6],0.12 µg/mL,–,–
C#CC(O)/C=C/CCCCCCCCCCCCCCCCCCCCCCCCCCCCCCCCCCC/C=C\C#CC(=O)OC (stereo unspecified) [PETROFORMYNE B],0.0025 µg/mL,–,–
